Test results as given in patent EP3071301B1, “QUERCUS PLANT EXTRACT AS ACTIVE AGENT WITH SKIN ANTI-AGEING PROPERTIES AND COSMETIC COMPOSITIONS CONTAINING IT” (Charlois Cosmetiques, priority 2013, dated 2015).

How the values were obtained:
[1] = molecular target: T1, hyaluronidase bovine (EC 3.2.1.35) (Bos taurus, UniProt Q2YDK3); assay: Hyaluronidase enzymatic activity inhibition (Experiment B); assay type: biochemical
T1 sequence (Q2YDK3 36-553): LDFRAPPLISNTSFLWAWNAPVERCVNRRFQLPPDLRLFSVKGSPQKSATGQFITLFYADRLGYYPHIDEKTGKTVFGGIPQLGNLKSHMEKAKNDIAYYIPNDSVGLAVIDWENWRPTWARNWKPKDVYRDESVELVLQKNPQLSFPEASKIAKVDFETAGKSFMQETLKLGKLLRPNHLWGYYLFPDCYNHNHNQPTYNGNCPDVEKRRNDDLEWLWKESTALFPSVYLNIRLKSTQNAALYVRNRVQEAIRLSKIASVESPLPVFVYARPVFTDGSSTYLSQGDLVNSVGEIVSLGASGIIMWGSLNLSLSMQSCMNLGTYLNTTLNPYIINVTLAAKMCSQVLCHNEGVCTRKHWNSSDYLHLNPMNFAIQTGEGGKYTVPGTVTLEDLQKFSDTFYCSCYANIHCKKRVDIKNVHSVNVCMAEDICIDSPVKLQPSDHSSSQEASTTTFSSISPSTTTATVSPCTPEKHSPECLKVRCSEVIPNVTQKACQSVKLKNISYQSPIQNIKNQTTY
Protocol: L'enzyme est la hyaluronidase bovine (EC 3.2.1.35), préparée tampon phosphate de sodium / chlorure de sodium / BSA, pH 7, et utilisée à 10 U/ml.
Le substrat est l'acide hyaluronique, préparé en tampon phosphate de sodium à pH 5,35 et testé à […].
Les principes actifs selon l'invention et la référence (acide 6-O-palmitoylascorbique, noté APA, testé à 300 µg/ml) sont mis en présence de la hyaluronidase et pré-incubés pendant 10 min à 37 °C sous agitation. L'acide hyaluronique est ensuite ajouté et les mélanges réactionnels sont incubés à 37 °C pendant 2 h. Des conditions contrôles sont réalisées en parallèle en incubant les principes actifs ou la référence en présence du substrat mais en absence de l'enzyme (Contrôle sans enzyme) ou en incubant les principes actifs ou la référence seuls (Contrôle interférence). Il est également réalisé un témoin en incubant l'enzyme seule (Témoin).
La réaction enzymatique est ensuite stoppée par précipitation de l'acide hyaluronique avec une solution tampon contenant de l'albumine de sérum bovin (BSA) à pH 3,75. […] L'activité est inversement proportionnelle à la valeur de DO mesurée.
(§1) Chaque expérience est tripliquée.
(§2) Les résultats sont exprimés en pourcentage d'activité de la hyaluronidase et en pourcentage d'inhibition de l'activité de la hyaluronidase. […]

[2] = test system: MMP totales; assay: Total matrix metalloprotease (MMP) activity inhibition, fluorogenic peptide; assay type: biochemical, humains
Description: Le principe actif E2 conforme à l'invention est soumis au test suivant, à des concentrations de 1 et 3 % p/p, selon le protocole décrit dans la publication de Sim et al., 2007, Arch Pharm Res, 30(3): 290-298.
Les MMP totales (obtenues selon un protocole standard à partir de surnageants de fibroblastes dermiques humains normaux, irradiés avec des UVB (20 mJ/cm^2)) sont traitées par le mélange inflammatoire acétate de phorbol myristate (PMA) et facteur de nécrose tumorale (TNFα).
Le substrat fluorescent est le peptide fluorogénique décrit dans la publication de Lee et al., 1999, Annals of the New York Academy of Sciences, 878: 635-637, et commercialisé sous la référence M6412 par la société Sigma-Aldrich.
Le principe actif E2 conforme à l'invention ou le témoin (O-phénantroline testée à 0,03; 0,1; 0,3 et 1 mM) sont préincubés pendant 10 min sur glace en présence des MMP totales activées, puis le substrat fluorescent est ajouté. Les plaques ont été incubées pendant 3h à 37°C. Un contrôle d'interférence du composé (composé en présence du mélange réactionnel sans enzyme) et un contrôle « quenching » (mélange réactionnel contenant le substrat et l'enzyme dans lequel le composé n'est ajouté qu'en fin d'incubation) ont été réalisés en parallèle. Le contrôle […] permet de vérifier l'absorption non spécifique de la fluorescence par le composé et donc la spécificité de l'inhibition observée dans la condition test correspondante.
as §1
A la fin de l'incubation, la fluorescence produite suite à la dégradation du substrat est mesurée par fluorimétrie pour une longueur d'onde d'excitation de 328 nm et une longueur d'onde d'émission de 393 nm, au moyen du dispositif SpectroMax Gemini, Molecular Devices.
Le % d'inhibition des MMPs totales est calculé pour chaque échantillon testé. Les résultats obtenus sont montrés dans le tableau 6 ci-après. Tableau 6 - Inhibition de l'activité des MMP totales par le principe actif E2 conforme à l'invention

[3] = Hydrogen peroxide assay (Amplex Red Hydrogen Peroxide/Peroxidase kit); details: hydrogen peroxide; 50 µM; 30 min
Description: (§3) Le principe actif E2 conforme à l'invention est soumis au test suivant, à des concentrations de 0,1; 0,3; 0,5; 1; 3 % p/p (% en poids de principe actif à tester, par rapport au poids final de milieu contenant le principe actif).
L'essai est réalisé au moyen du kit de dosage Amplex® Red Hydrogen Peroxyde/Peroxydase Assay Kit (Molecular Probes®), dont le réactif 10-acétyl-3,7-dihydroxyphénoxazine est utilisé pour déterminer la quantité de peroxyde d'hydrogène présent. Le substrat non coloré réagit avec le peroxyde d'hydrogène (H2O2) dans un rapport stoechiométrique 1:1 pour produire de la résofurine hautement fluorescente. […]
Le principe actif selon l'invention et le BHA (3-tert-butyl-4-hydroxyanisole), en tant que témoin, à une concentration de 50 µM, sont incubés en présence d'H2O2, de réactif Amplex® Red et d'enzyme Horse Radish Peroxydase (HRP) pendant 30 min à température ambiante. Puis la fluorescence est mesurée, pour une longueur d'onde d'excitation de 540 nm et une longueur d'onde d'émission de 590 nm.
Des contrôles d'auto-fluorescence et d'absorption de fluorescence (quenching) sont aussi réalisés pour chaque concentration de principe actif selon l'invention et du témoin. Les contrôles d'absorption de fluorescence sont réalisés en incubant le peroxyde d'hydrogène (H2O2), le réactif Amplex® Redet l'enzyme HRP pendant 30 min. […]

[4] = molecular target: T2, hyaluronidase (EC 3.2.1.35) (Bos taurus, UniProt Q2YDK3); assay: Hyaluronidase activity inhibition (Experiment A); assay type: biochemical
T2 sequence (Q2YDK3 36-553): T1 sequence (Q2YDK3 36-553)
Description: as §3
Le substrat est l'acide hyaluronique, testé à 0,04 % en tampon phosphate de sodium.
L'enzyme est la hyaluronidase (EC 3.2.1.35) testée à 10 U/ml en tampon phosphate de sodium / chlorure de sodium / BSA.
Le principe actif selon l'invention et les témoins (vitamine C à 10 mg/l et palmitate d'ascorbyle à 200 µg/ml) sont mis en présence de la hyaluronidase et incubés pendant 10 min à 37 °C sous agitation. L'acide hyaluronique est ensuite ajouté et les mélanges réactionnels sont incubés à 37 °C pendant 2 h. Des conditions contrôles additionnelles sont réalisées en incubant le produit et le substrat en l'absence de l'enzyme, ou en incubant le produit seul correspondant à un contrôle interférence. La réaction enzymatique est ensuite stoppée par précipitation de l'acide hyaluronique avec une solution d'albumine de sérum bovin (BSA). L'absorption (DO) à 540 nm est mesurée à l'aide d'un lecteur de microplaques (ThermoMax, Molecular Devices).
as §1, §2

SMILES: CCCCCCCCCCCCCCCC(=O)OC[C@H](O)[C@H]1OC(=O)C(O)=C1O [APA, acide 6-O-palmitoylascorbique]
- inhibition at 300 µg/mL [1]: 79%
- activity at 300 µg/mL ([1]; read-out: Activité hyaluronidase (%)): 21%

SMILES: c1cnc2c(c1)ccc1cccnc12 [O-Phénanthroline]
- % inhibition ([2]; 0,1 mM, 100 µM): 15%
- % inhibition ([2]; 0,03 mM, 30 µM): 1%
- % inhibition ([2]; 0,3 mM, 300 µM): 73%
- % inhibition ([2]; 1 mM): 97%

SMILES: COc1ccc(O)c(C(C)(C)C)c1 [BHA, 3-tert-butyl-4-hydroxyanisole]
- % inhibition [3]: 60%

SMILES: CCCCCCCCCCCCCCCC(=O)OC[C@H](O)[C@H]1OC(=O)C(O)=C1O [Palmitate d'ascorbyle, palmitate d'ascorbyle]
- inhibition at 200 µg/mL ([4]; 200 µg/ml): 80%

SMILES: O=C1O[C@H]([C@@H](O)CO)C(O)=C1O [Vitamine C]
- inhibition at 10000 µg/mL ([4]; 10 mg/ml): 71%
